In publication PMC8217170, “Phase Ib dose-escalation study of the hypoxia-modifier Myo-inositol trispyrophosphate in patients with hepatopancreatobiliary tumors” (Nature Communications, 2021):
Several values for one entry are separate records, joined by “and”; a condition that tells them apart may be missing. Identical values can stand only once. Like-named read-outs stand apart in the source and are kept apart here.

Experiments:
[1] = test system: VEGFA, ANG1/2, EGF, PECAM1/CD31; assay: Serum angiogenic markers overall, before vs after ITPP; type: in vivo, human
Method: Serum angiogenesis markers were quantified by multiplex bead-based immunoassays following provided instructions (LEGENDplex™, Biolegend, San Diego, CA/USA). For biochemical markers, the percentage change comparing before (day 1 0 h) with after (last day 9 h) ITPP treatment was calculated.

[2] = test system: colorectal liver metastasis; conditions: cited from earlier work; for Survival: ref 16 (supplementary references)
[3] = test system: patients with PDAC, CRLM, CCA and HCC; assay: Progression free and overall survival; type: in vivo, human; conditions: for Follow up from study start / Survival status: individual patients; for Survival status: per 31st of December 2018
From the text: Ad hoc outcomes consisted of assessment of overall survival of patients in regard to tumor type and cohort as well as histological assessment of hypoxia markers in tumor tissue of selected patients.
Cohort size was based on the traditional 3 + 3 dose-escalation scheme without formal power or sample size calculation. Data are summarized with descriptive statistics using medians and interquartile ranges (IQRs) as indicated. Pearson’s coefficient was used to test for correlation between numerical variables, and Mann–Whitney U or Kruskal–Wallis tests for differences in continuous variables among groups. Kaplan–Meier curves and the Mantel–Cox log rank test were used for survival analyses. No adjustment for multiple testing was performed.

[4] = test system: pancreatic carcinoma; parameters: method as in ref 15 (supplementary references); conditions: ref 15 (supplementary references), cited from earlier work
[5] = test system: HIF1α; assay: Immunohistochemistry of tumor tissue before vs after ITPP, one patient; type: in vivo, human
Method: (§1) Samples were collected in 4% buffered formaldehyde, dehydrated, embedded in paraffin and cut into 5 µm sections and stained after antigen retrieval. Hematoxylin/eosin and Masson’s trichrome stains were performed according to standard protocols. The following antibodies were used for immunohistochemical staining: pan-B cytokeratin (CkpanB, Dako, M3515, dilution 1/50), HIF1α (Abcam, ab16066, dilution 1/400), HIF2α (Abcam, ab199, dilution 1/50), carbonic anhydrase 9 (CA9, Abcam, ab15086, dilution 1/3000), glucose transporter 1/SLC2A1 (GLUT1, Millipore, 07-1401, dilution 1/1000), PECAM1 / CD31 (Dako, M0823, dilution 1/10), ETS transcription factor (ERG, Roche, 790-4576, prediluted) and vimentin (VIM, Dako, M7020, dilution 1/250). For histological analyses, 5 random images of tumor areas of stained slides were taken at 40x magnification. Stained areas were isolated by color deconvolution and thresholding. Quantification of staining intensity was measured on thresholded areas, converted onto a scale from 0 (white, no staining) to 100 (black, completely stained) and compared between the sample taken before ITPP treatment and the one after. For calculation of percentage area stained, thresholded areas were compared to the complete area of the picture. ImageJ (V1.53c, National Institutes of Health, USA) was used for all histological analyses.
(§2) This analyses must be regarded with caution due to n=1!

[6] = test system: PECAM1/CD31; assay: as above; type: in vivo, human; conditions: CD31 stain, group After (ITPP), one value per image field; threshold 0-90
Method: as §1, §2

[7] = test system: SLC2A1/GLUT1; assay: as above; type: in vivo, human; conditions: patient nr. 21, CRLM
Method: as §1, §2

[8] = test system: ERG; assay: as above; type: in vivo, human
Method: as §1, §2

[9] = test system: Vimentin; assay: as above; type: in vivo, human
Method: as §1, §2

[10] = test system: HIF2α; assay: as above; type: in vivo, human; conditions: patient nr. 21, CRLM, only weak staining
Method: as §1, §2

[11] = test system: carbonic anhydrase 9 (CA9); assay: as above; type: in vivo, human
Method: as §1, §2

[12] = test system: human colon carcinomatosis; parameters: method as in ref 12 (supplementary references); conditions: xenogeneic mouse model of human colon carcinomatosis; ref 12 (supplementary references); cited from earlier work
[13] = test system: CEA, AFP, CA19-9; assay: Circulatory tumor-specific markers before vs after ITPP; type: in vivo, human; conditions: for Tumor marker AFP / Tumor marker CEA: individual patients
From the text: Load the raw data of the tumor marker measurements, calculate fold changes (FC) and percentage changes comparing measurments per patient before and after ITPP treatment.

[14] = test system: EGF; assay: Serum angiogenesis marker, multiplex bead-based immunoassay (LEGENDplex); type: in vivo, human; parameters: EGF: unit not given here; conditions: for EGF: serum, duplicate wells
[15] = test system: ANG1; assay: as above; type: in vivo, human; parameters: ANG1: unit not given here; conditions: for ANG1: serum, duplicate wells
[16] = of 22 patients with elevated markers, under ITPP
[17] = following ITPP treatment, 27 patients
[18] = Patient 25, Cohort 8, PDAC, Day 3 post
[19] = Patient 25, Cohort 8, PDAC, Day 9 post
[20] = Patient 26, Cohort 8, PDAC, Day 3 post
[21] = Patient 26, Cohort 8, PDAC, Day 9 post
[22] = Patient 27, Cohort 8, CCC, Day 3 post
[23] = Patient 27, Cohort 8, CCC, Day 9 post
[24] = Patient 28, Cohort 8, CRLM, Day 3 post
[25] = Patient 28, Cohort 8, CRLM, Day 9 post

For `O=P1(O)OC2C3OP(=O)(O)OP(=O)(O)OC3C3OP(=O)(O)OP(=O)(O)OC3C2OP(=O)(O)O1` (stereo not shown) [ITPP, Myo-inositol trispyrophosphate], the “Share of patients with decreases in angiogenic markers” value [1] is listed as about 60%, the Survival ([2]; FOLFOX combined with ITPP, 10 days, five times each on alternate days) is listed as 153 days and the Survival ([2]; FOLFOX given following ITPP treatment) is listed as 152 days. For the same compound, the Survival ([2]; ITPP alone) was 65.5 days, the Extension of survival ([2]; syngeneic mouse model of colorectal liver metastasis, 17 (supplementary references)) was 60% and the “Median OS from start of ITPP infusions” value ([3]; CCA) was 302 days. For the same compound, the “Median progression free survival (PFS)” value ([3]; CCA) was 158 days, the “Median OS from start of ITPP infusions” value ([3]; CRLM) was 340 days and the “Median progression free survival (PFS)” value ([3]; CRLM) was 23 days. For the same compound, the “Median OS from start of ITPP infusions” value ([3]; HCC) was 684 days, the “Median progression free survival (PFS)” value ([3]; HCC) was 345 days and the “Median OS from start of ITPP infusions” value ([3]; PDAC) was 165 days. The “Median progression free survival (PFS)” value ([3]; PDAC) was 32 days, the “Follow up from study start” value ([3]; cohort 1 (1866 mg/m2)) was 16 days and 464 days and 159 days and 398 days and the Survival status ([3]; cohort 1, 1866 mg/m2) was “Dead”. For the same compound, the “Follow up from study start” value ([3]; cohort 2 (3732 mg/m2)) was 783 days and 188 days and 158 days, the Survival status ([3]; cohort 2, 3732 mg/m2) was “Dead” and the “Follow up from study start” value ([3]; cohort 3 (5600 mg/m2)) was 159 days and 171 days and 206 days. The Survival status ([3]; cohort 3, 5600 mg/m2) was “Dead”, the “Follow up from study start” value ([3]; cohort 4 (7000 mg/m2)) was 193 days and 219 days and 684 days and 10 days and the Survival status ([3]; cohort 4, 7000 mg/m2) was “Dead”. For the same compound, the “Follow up from study start” value ([3]; cohort 5 (8750 mg/m2)) was 196 days and 202 days and 68 days, the Survival status ([3]; cohort 5, 8750 mg/m2) was “Dead” and the “Follow up from study start” value ([3]; cohort 6 (10500 mg/m2)) was 394 days and 510 days and 500 days and 301 days. For the same compound, the Survival status ([3]; cohort 6, 10500 mg/m2) was “Dead and Alive”, the “Follow up from study start” value ([3]; cohort 7 (12390 mg/m2)) was 87 days and 380 days and 392 days and the Survival status ([3]; cohort 7, 12390 mg/m2) was “Dead and Alive”. The “Follow up from study start” value ([3]; cohort 8 (14500 mg/m2)) was 43 days and 73 days and 266 days and 206 days, the Survival status ([3]; cohort 8, 14500 mg/m2) was “Dead and Alive” and the Overall survival ([3]; patients with a lowering of PECAM1/CD31 under ITPP, p = 0.36) was 380 days. It also gave an Overall survival ([3]; patients with a lowering of VEGFA under ITPP, p = 0.053) of 398 days, an Overall survival ([3]; patients without lowering of PECAM1/CD31 under ITPP) of 171 days and an Overall survival ([3]; patients without lowering of VEGFA under ITPP) of 196 days. For the same compound, the “Median OS from start of ITPP infusions” value ([3]; whole patient population) was 206 days, the “Median progression free survival (PFS)” value ([3]; whole patient population) was 48 days and the Survival ([4]; ITPP combined with half the usual dose of gemcitabine, all animals) was over 200 days. The Survival ([4]; ITPP treatment alone) was 93 days, the “%Area” value ([5]; HIF1a stain, group After (ITPP), one value per image field, threshold 0-220) was 60.518% and 62.226% and 71.026% and 45.098% and 63.507% and the “HIF1α staining, before vs after ITPP treatment” value ([5]; patient nr. 21, CRLM, only weak staining) was “no difference”. For the same compound, the “%Area” value [6] was 1.371% and 1.754% and 0.512% and 2.094% and 0.52%, the “Expression of SLC2A1/GLUT1 in cancer cells after ITPP treatment” value [7] was “downregulated” and the “%Area” value ([8]; Erg stain, group After (ITPP), one value per image field, threshold 0-130) was 0.53% and 0.557% and 0.323% and 0.603% and 0.393%. For the same compound, the “ERG after ITPP treatment” value ([8]; patient nr. 21, CRLM) was “more abundant”, the “%Area” value ([9]; Vim stain, group After (ITPP), one value per image field, threshold 0-160) was 29.786% and 30.117% and 24.166% and 28.151% and 26.502% and the “Vimentin after ITPP administration” value ([9]; patient nr. 21, CRLM) was “decreased”. The “HIF2α staining, before vs after ITPP treatment” value [10] was “no difference”, the “%Area” value ([11]; CAIX stain, group After (ITPP), one value per image field, threshold 0-130) was 0.006% and 0.014% and 0.943% and 0.008% and 0.048% and the “Expression of carbonic anhydrase 9 (CA9) after ITPP treatment” value ([11]; patient nr. 21, CRLM) was “decreased”. For the same compound, the “Decrease of tumor growth compared with capecitabine” value [12] was “more efficient than capecitabine”, the “Patients with tumor markers not elevated” value ([13]; CEA, AFP, CA19-9) was 5/27 and the “Tumor marker AFP” value ([13]; Day 1 pre (baseline before ITPP)) was 1572 µg/L and 11.2 µg/L and 270600 µg/L. The “Tumor marker CEA” value ([13]; Day 1 pre (baseline before ITPP), ITPP cohort 2) was 2.8 µg/L, the “Tumor marker CEA” value ([13]; Day 1 pre (baseline before ITPP), ITPP cohort 3) was 169.8 µg/L and the “Tumor marker CEA” value ([13]; Day 1 pre (baseline before ITPP), ITPP cohort 6) was 3.2 µg/L and 1 µg/L and 291.6 µg/L. For the same compound, the “Tumor marker CEA” value ([13]; Day 1 pre (baseline before ITPP), ITPP cohort 7) was 2205 µg/L and 2068 µg/L, the “Tumor marker CEA” value ([13]; Day 1 pre (baseline before ITPP), ITPP cohort 8) was 7058 µg/L and the “Tumor marker AFP” value ([13]; Day 3 post) was 1167 µg/L and 11.2 µg/L. The “Tumor marker CEA” value ([13]; Day 3 post, ITPP cohort 2) was 2.9 µg/L, the “Tumor marker CEA” value ([13]; Day 3 post, ITPP cohort 3) was 165.1 µg/L and the “Tumor marker CEA” value ([13]; Day 3 post, ITPP cohort 6) was 3.2 µg/L and 2.3 µg/L and 300.1 µg/L. The “Tumor marker CEA” value ([13]; Day 3 post, ITPP cohort 7) was 2190 µg/L and 2209 µg/L, the “Tumor marker CEA” value ([13]; Day 3 post, ITPP cohort 8) was 7145 µg/L and the “Tumor marker AFP” value ([13]; Day 9 post) was 1017 µg/L and 5.1 µg/L and 204800 µg/L. The “Tumor marker CEA” value ([13]; Day 9 post, ITPP cohort 2) was 2.9 µg/L, the “Tumor marker CEA” value ([13]; Day 9 post, ITPP cohort 3) was 247.8 µg/L and the “Tumor marker CEA” value ([13]; Day 9 post, ITPP cohort 6) was 4.6 µg/L and 1 µg/L and 451 µg/L. The “Tumor marker CEA” value ([13]; Day 9 post, ITPP cohort 7) was 2055 µg/L and 3058 µg/L, the “Tumor marker CEA” value ([13]; Day 9 post, ITPP cohort 8) was 7626 µg/L and the “Patients with a decrease in tumor marker levels” value [13, 16] was 11. For the same compound, the “Patients with an increase in tumor marker levels” value [13, 16] was 11, the “Share of patients with reduced EGF” value [14, 17] was 85.2% and the EGF [14, 18] was 16.25. For the same compound, the EGF [14, 19] was 11.62 and 15.2, the EGF [14, 20] was 14.41 and 12.95 and the EGF [14, 21] was 9.76 and 9.88. For the same compound, the EGF [14, 22] was 5.57 and 4.9, the EGF [14, 23] was 9.82 and 10.17 and the EGF [14, 24] was 2.39 and 3.39. The EGF [14, 25] was 3.09 and 2.24, the “Share of patients with reduced ANG1” value [15, 17] was 51.9% and the ANG1 [15, 18] was 692.38. The ANG1 [15, 19] was 719.05 and 765.98, the ANG1 [15, 20] was 143.21 and 130.63 and the ANG1 [15, 21] was 207.7 and 218.53. For the same compound, the ANG1 [15, 22] was 904.42 and 799.6, the ANG1 [15, 23] was 835.71 and 800.95 and the ANG1 [15, 24] was 981.48 and 747.77. The ANG1 [15, 25] was 618.86 and 532.8.
